# Laboratory results from patent US20200253211A1, “PHOTODYNAMIC INHIBITION OF MICROBIAL PATHOGENS IN PLANTS” (SUNCOR ENERGY INC, priority 2017, published 2020).
# Where two headings read alike, the source gives them in different places.
# Experiments:
# Assay type in all cases: cell-based
# Sclerotinia homoeocarpa [1] = experiment: Radial growth of dollar spot fungus on amended Potato Dextrose Agar, dark vs light; settings: for inhibition at 500 µM / inhibition at 1000 µM / inhibition at 2000 µM: Clarireedia homoeocarpa
# E. Coli K-12 = experiment: E. Coli assay under LED lamps, colony count; settings: light
# Procedure: Regarding the E. Coli assay tests in the above examples, the following procedure was used: • 1. E. Coli K-12 inoculated in 5 mL TSB and placed in a shaking incubator overnight. • 2. Dilute culture in 500 mL PBS (˜10̂8 CFU/mL) and placed in shaking incubator for 30 minutes at […]. • 3.15 mL samples created using 12 mL culture and a mixture of PBS buffer and sample compounds. • 4. Placed under LED lamps for 2 hours (40 W/m^2). • 5. Samples diluted to 10^−4 and culture controls diluted to 10^−5 for plating through series dilutions. • 6. 0.1 mL plated of each sample in triplicates on TSA base (10^−3 and 10^−4 for samples. 10^−4 and 10^−5 for controls). • 7. Incubated overnight at 37° C. • 8. Colonies counted next morning and recorded.
# [2] = test system: Alternaria solani mycelia; experiment: Photodynamic inhibition of Alternaria solani mycelia, percentage of dead samples after 7 days on agar; settings: Table 5
# Procedure: In the experiments, Alternaria solani mycelia were grown in liquid medium for 24 hours. Small spheres of the mycelia (average diameter 2 mm) were incubated for 100 minutes with 100 μM of Mg-Chlorophyllin with 0 to 5 mM of Disodium-EDTA. Samples were illuminated with 395 nm (fluence 106.6 J cm^−2) for 120 mins and the radial growth of mycelial patches after 7 days on agar medium was measured. A sample was considered dead, if there was no growth observable after 7 days on agar plates.
# In the experiments, Alternaria solani mycelia were grown in liquid medium for 24 hours. Small spheres of the mycelia (average diameter 2 mm) were incubated for 100 minutes with Chlorin E6 with or without 5 mM of disodium-EDTA. Samples were illuminated with 395 nm (fluence 106.6 J cm^−2) for 120 mins and the radial growth of mycelial patches after 7 days on agar medium was measured. A sample was considered dead, if there was no growth observable after 7 days on agar plates.
# The protocol for the PDI of A. solani was as follows (for Experiment 2 and 5): • Grow A. solani on tomato-agar for some days. • Transfer parts of the growing mycelium form the edge of the A. solani (no conidia) to liquid tomato medium. • Incubate overnight at 26° C. under constant agitation. • Transfer the grown mycelia (spheres of mycelia, approximately 2 mm in diameter) to 24 well plates. • Add 500 microlitres of the PS to the well (PBS for the Co and light only controls). • Incubate under agitation for 100 minutes. • Illuminate under agitation for 120 minutes. • Transfer the treated mycelia to tomato-agar plates and incubate for one week at room temperature. • Evaluate by counting of dead samples.
# Sclerotinia homoeocarpa [3] = experiment: Radial growth of dollar spot fungus after treatment of plugs in PBS (24 well plates), dark vs light
# Procedure: In this example, control of dollar spot fungus (Sclerotinia homoeocarpa) with chlorins combined with a chelating agent was assessed. Treatments were prepared in Phosphate Buffered Saline (PBS) in 24 well plates (in duplicates for light vs. dark incubation) at desired concentrations. Then, a 5 mm diameter plug of a Sclerotinia homoeocarpa isolate (3 isolates total tested) was inoculated into the PBS and incubated at 21° C. in the dark for 2 hours. After 2 hours, one of the 24 well plates (with isolates in triplicate) is left in the dark and one 24 well plate is placed under illumination for 1 hour (all at 21° C.). Following illumination, fungal plugs are removed from PBS, blotted dry on sterile filter paper and transferred to non-amended Potato Dextrose Agar (PDA). Radial growth of the fungus is monitored daily until the growth of S. homoeocarpa reaches the edge of the Petri-dish. Illumination is provided by LED lights emitting about 1000 μmol/m^2/s photosynthetically active radiation (PAR). In this example, control of dollar spot fungus (Sclerotinia homoeocarpa) with Zinc Protoporphyrin IX (Zn-PPIX) combined with EDTA was assessed. Treatments were prepared in Phosphate Buffered Saline (PBS) in 24 well plates (in duplicates for light vs. dark incubation) at desired concentrations. Then, a 5 mm diameter plug of a Sclerotinia homoeocarpa isolate (3 isolates total tested) was inoculated into the PBS and incubated at 21° C. in the dark for 2 hours. After 2 hours, one of the 24 well plates (with isolates in triplicate) is left in the dark and one 24 well plate is placed under illumination for 1 hour (all at 21° C.). Following illumination, fungal plugs are removed from PBS, blotted dry on sterile filter paper and transferred to non-amended Potato Dextrose Agar (PDA). Radial growth of the fungus is monitored daily until the growth of S. homoeocarpa reaches the edge of the Petri-dish. Illumination is provided by LED lights emitting about 1000 μmol/m^2/s photosynthetically active radiation (PAR). In this example, control of dollar spot fungus (Sclerotinia homoeocarpa) with bacteriochlorin combined with EDTA was assessed. Treatments were prepared in Phosphate Buffered Saline (PBS) in 24 well plates (in duplicates for light vs. dark incubation) at desired concentrations. Then, a 5 mm diameter plug of a Sclerotinia homoeocarpa isolate (3 isolates total tested) was inoculated into the PBS and incubated at 21° C. in the dark for 2 hours. After 2 hours, one of the 24 well plates (with isolates in triplicate) is left in the dark and one 24 well plate is placed under illumination for 1 hour (all at 21° C.). Following illumination, fungal plugs are removed from PBS, blotted dry on sterile filter paper and transferred to non-amended Potato Dextrose Agar (PDA). Radial growth of the fungus is monitored daily until the growth of S. homoeocarpa reaches the edge of the Petri-dish. Illumination is provided by LED lights emitting about 1000 μmol/m^2/s photosynthetically active radiation (PAR). In this example, control of dollar spot fungus (Sclerotinia homoeocarpa) with Aluminum chlorin e6 combined with EDTA was assessed. Treatments were prepared in Phosphate Buffered Saline (PBS) in 24 well plates (in duplicates for light vs. dark incubation) at desired concentrations. Then, a 5 mm diameter plug of a Sclerotinia homoeocarpa isolate (3 isolates total tested) was inoculated into the PBS and incubated at 21° C. in the dark for 2 hours. After 2 hours, one of the 24 well plates (with isolates in triplicate) is left in the dark and one 24 well plate is placed under illumination for 1 hour (all at 21° C.). Following illumination, fungal plugs are removed from PBS, blotted dry on sterile filter paper and transferred to non-amended Potato Dextrose Agar (PDA). Radial growth of the fungus is monitored daily until the growth of S. homoeocarpa reaches the edge of the Petri-dish. Illumination is provided by LED lights emitting about 1000 μmol/m^2/s photosynthetically active radiation (PAR). […]
# Botrytis cinerea mycelia = experiment: Photodynamic inhibition of Botrytis cinerea mycelia, percentage of dead samples after 7 days on agar; settings: Table 4; EDTA-Ca 5 mM alone; with light
# Procedure: In the experiments, Botrytis cinerea mycelia were grown in liquid medium for 48 hours. Small spheres of the mycelia (average diameter 2 mm) were incubated for 100 minutes with Mg-Chlorophyllin with or without 5 mM Disodium-EDTA. Samples were illuminated with 395 nm (fluence 106.6 J cm^−2) for 120 minutes and the radial growth of mycelial patches after 7 days on agar medium was measured. A sample was considered dead, if there was no growth observable after 7 days on agar plates.
# In the experiments, Botrytis cinerea mycelia were grown in liquid medium for 48 hours. Small spheres of the mycelia (average diameter 2 mm) were incubated for 100 minutes with Mg-Chlorophyllin with or without 5 mM EDTA (calcium or disodium). Samples were illuminated with 395 nm (fluence 106.6 J cm^−2) for 120 min and the radial growth of mycelial patches after 7 days on agar medium was measured. A sample was considered dead, if there was no growth observable after 7 days on agar plates.
# In the experiments, Botrytis cinerea mycelia were grown in liquid medium for 48 hours. Small spheres of the mycelia (average diameter 2 mm) were incubated for 100 minutes with Mg-Chlorophyllin with or without Baypure DS100 Samples were illuminated with 395 nm (fluence 106.6 J cm^−2) for 120 min and the radial growth of mycelial patches after 7 days on agar medium was measured. A sample was considered dead, if there was no growth observable after 7 days on agar plates.
# The protocol for the PDI of B. cinerea was as follows (for experiments 3 and 4 described above): • Grow B. cinerea on malt-peptone-agar for some days. • Transfer spores of B. cinerea to liquid malt-peptone medium. • Incubate for 2-3 days at 26° C. under constant agitation. • Transfer the grown mycelia (spheres of mycelia, approximately 2 mm diameter) to 24 well plates. • Add 500 μl of the PS to the well. • Incubate under agitation for 100 minutes in the dark. • Illuminate under agitation for 120 minutes. • Transfer the treated mycelia to malt-peptone-agar plates and incubate for one week at room temperature. • Evaluate by counting of dead samples.
# [4] = Table 13, 1 mM Curcumin in 0.25% Tween 80 solution
# [5] = Table 9A, dark, Ca-EDTA 100 μM, no curcumin
# [6] = Table 9B, light, Ca-EDTA 100 μm, no curcumin
smiles,measurement,setting,value
"O=C(O)CC(NC(CC(=O)O)C(=O)O)C(=O)O (stereo not shown) [Baypure CX (IDS), tetrasodium iminodisuccinate]",inhibition at 500 µM,"Sclerotinia homoeocarpa [1]; Table 14A, dark, rate 500 μM",6.2%
same,inhibition at 1000 µM,"Sclerotinia homoeocarpa [1]; Table 14A, dark, rate 1000 μM",15.2%
same,inhibition at 2000 µM,"Sclerotinia homoeocarpa [1]; Table 14A, dark, rate 2000 μM",31.3%
same,inhibition at 500 µM,"Sclerotinia homoeocarpa [1]; Table 14B, light, rate 500 μM",8.6%
same,inhibition at 1000 µM,"Sclerotinia homoeocarpa [1]; Table 14B, light, rate 1000 μM",18%
same,inhibition at 2000 µM,"Sclerotinia homoeocarpa [1]; Table 14B, light, rate 2000 μM",30.9%
same,Mean Radial Growth,"Sclerotinia homoeocarpa [1]; Table 14A, dark, rate 500 μM",12.7 mm
same,Mean Radial Growth,"Sclerotinia homoeocarpa [1]; Table 14A, dark, rate 1000 μM",11.4 mm
same,Mean Radial Growth,"Sclerotinia homoeocarpa [1]; Table 14A, dark, rate 2000 μM",9.3 mm
same,Mean Radial Growth,"Sclerotinia homoeocarpa [1]; Table 14B, light, rate 500 μM",11.8 mm
same,Mean Radial Growth,"Sclerotinia homoeocarpa [1]; Table 14B, light, rate 1000 μM",10.6 mm
same,Mean Radial Growth,"Sclerotinia homoeocarpa [1]; Table 14B, light, rate 2000 μM",8.9 mm
same,% Inactivation,"E. Coli K-12; Table 11, 5 mM Baypure CX",67.8%
same,CFU/mL,"E. Coli K-12; Table 11, 5 mM Baypure CX",2.09E+06 CFU/mL
same,LogCFU/mL,"E. Coli K-12; Table 11, 5 mM Baypure CX",6.32 LogCFU/mL
C=Cc1c(C)c2cc3nc(c(CC(=O)O)c4[nH]c(cc5nc(cc1[nH]2)C(C)=C5CC)c(C)c4C(=O)O)[C@@H](CCC(=O)O)[C@@H]3C [Chlorin E6],dead %,"[2]; light, 1 μM Chlorin E6",0.0%
same,dead %,"[2]; light, 10 μM Chlorin E6",8.3%
same,dead %,"[2]; light, 100 μM Chlorin E6",0%
same,dead %,"[2]; no light, 100 μM Chlorin E6",0.0%
same,% Inhibition,"Sclerotinia homoeocarpa [3]; Table 18A, dark, rate 10 μM",−1.49%
same,Mean Radial Growth,"Sclerotinia homoeocarpa [3]; Table 18A, dark, rate 10 μM",11.33 mm
same,% Inhibition,"Sclerotinia homoeocarpa [3]; Table 18A, dark, rate 100 μM",3.48%
same,Mean Radial Growth,"Sclerotinia homoeocarpa [3]; Table 18A, dark, rate 100 μM",10.78 mm
same,% Inhibition,"Sclerotinia homoeocarpa [3]; Table 18B, light, rate 10 μM",24.12%
same,Mean Radial Growth,"Sclerotinia homoeocarpa [3]; Table 18B, light, rate 10 μM",8.39 mm
same,% Inhibition,"Sclerotinia homoeocarpa [3]; Table 18B, light, rate 100 μM",11.06%
same,Mean Radial Growth,"Sclerotinia homoeocarpa [3]; Table 18B, light, rate 100 μM",9.83 mm
COc1cc(/C=C/C(=O)CC(=O)/C=C/c2ccc(O)c(OC)c2)ccc1O [Curcumin],inhibition at 500 µM,"Sclerotinia homoeocarpa [1]; Table 9A, dark, Curcumin 500 μM in 0.25% Tween 80, read-out: % Inhibition",11.4%
same,inhibition at 1000 µM,"Sclerotinia homoeocarpa [1]; Table 9A, dark, Curcumin 1000 μM in 0.25% Tween 80, read-out: % Inhibition",33%
same,inhibition at 500 µM,"Sclerotinia homoeocarpa [1]; Table 9B, light, Curcumin rate 500 μM in 0.25% Tween 80, read-out: % Inhibition",8.1%
same,inhibition at 1000 µM,"Sclerotinia homoeocarpa [1]; Table 9B, light, Curcumin rate 1000 μM in 0.25% Tween 80, read-out: % Inhibition",28.9%
same,Mean Radial Growth,"Sclerotinia homoeocarpa [1]; Table 9A, dark, Curcumin 500 μM in 0.25% Tween 80",13.1 mm
same,Mean Radial Growth,"Sclerotinia homoeocarpa [1]; Table 9A, dark, Curcumin 1000 μM in 0.25% Tween 80",9.9 mm
same,Mean Radial Growth,"Sclerotinia homoeocarpa [1]; Table 9B, light, Curcumin rate 500 μM in 0.25% Tween 80",12.4 mm
same,Mean Radial Growth,"Sclerotinia homoeocarpa [1]; Table 9B, light, Curcumin rate 1000 μM in 0.25% Tween 80",9.6 mm
same,% Inactivation,E. Coli K-12; [4],86.0%
same,CFU/mL,E. Coli K-12; [4],1.24E+06 CFU/mL
same,LogCFU/mL,E. Coli K-12; [4],6.09 LogCFU/mL
"O=C([O-])CN(CCN(CC(=O)[O-])CC(=O)[O-])CC(=O)[O-].[Ca+2].[Na+].[Na+] [EDTA-Ca, calcium disodium EDTA]",dead %,Botrytis cinerea mycelia,0%
same,% Inhibition,Sclerotinia homoeocarpa [1]; [5],80.8%
same,Mean Radial Growth,Sclerotinia homoeocarpa [1]; [5],2.8 mm
same,% Inhibition,Sclerotinia homoeocarpa [1]; [6],76.5%
same,Mean Radial Growth,Sclerotinia homoeocarpa [1]; [6],3.2 mm
